Values quoted from earlier work as cited in PMC12181400, “Leveraging viral genome sequences and machine learning models for identification of potentially selective antiviral agents” (Communications Chemistry, 2025).
Where a name gives a salt, the structure may show the parent alone. Read-outs that look alike come from different tables or passages of the source.

What was measured:
Conditions in all cases: cited from earlier work
[1] = test system: cell viability (tox21-are-bla-p1)
[2] = test system: cell viability (tox21-car-agonist-p1)
[3] = test system: cell viability (tox21-ap1-agonist-p1)
[4] = test system: cell viability (tox21-ar-mda-kb2-luc-antagonist-p2)
[5] = test system: cell viability (tox21-car-antagonist-p1)
[6] = test system: cell viability (tox21-ar-mda-kb2-luc-agonist-p3)
[7] = curve rank −9 to 9, 0 = inactive, ref NCATS Tox21 public data browser

Row | SMILES | tox21-are-bla-p1-viability (curve rank) [1, 7] | tox21-car-agonist-p1-viability (curve rank) [2, 7] | tox21-ap1-agonist-p1-viability (curve rank) [3, 7] | tox21-ar-mda-kb2-luc-antagonist-p2-viability (curve rank) [4, 7] | tox21-car-antagonist-p1-viability (curve rank) [5, 7] | tox21-ar-mda-kb2-luc-agonist-p3-viability (curve rank) [6, 7] | tox21-are-bla-p1-viability (curve rank) [1] | tox21-car-agonist-p1-viability (curve rank) [2] | tox21-ap1-agonist-p1-viability (curve rank) [3] | tox21-ar-mda-kb2-luc-antagonist-p2-viability (curve rank) [4] | tox21-car-antagonist-p1-viability (curve rank) [5] | tox21-ar-mda-kb2-luc-agonist-p3-viability (curve rank) [6]
1 | CC[C@@H](CO)NC(=O)[C@@H]1C=C2c3cccc4c3c(cn4C)C[C@H]2N(C)C1 [Methysergide] | 0 | 0 | 0 | 0 | 0 | 0 |  |  |  |  |  | 
2 | Nc1ccc(C(=O)O)cc1 [4-Aminobenzoic acid] |  |  |  |  |  |  | 0 | 0 | 0 | 0 | 0 | 0
3 | CSc1ccc(C(=O)c2[nH]c(=O)[nH]c2C)cc1 [Enoximone] |  |  |  |  |  |  | 0 | 0 | 0 | 0 | 0 | 0
4 | CCN(CC)CC1CCCCN1CC(=O)N1c2ccccc2C(=O)Nc2cccnc21 (stereo not drawn) [AF-DX 116] |  |  |  |  |  |  | 0 | 0 | 0 | 0 | 0 | 0
5 | CCCCCC(C)N.O=S(=O)(O)O (stereo not drawn) [2-Aminoheptane sulfate] | 0 | 0 | 0 | 0 | 0 | 0 |  |  |  |  |  | 
6 | O=C(Cn1ccnc1[N+](=O)[O-])NCCO [Etandazole] |  |  |  |  |  |  | 0 | 0 | 0 | 0 | 0 | 0
7 | CC(=O)N[C@@H](CC(C)C)C(=O)O [Acetyl-L-leucine] |  |  |  |  |  |  | 0 | 0 | 0 | 0 | 0 | 0
8 | CC(C)(C)C(=O)OCOC(=O)[C@@H]1N2C(=O)[C@@H](NC(=O)[C@H](N)c3ccccc3)[C@H]2SC1(C)C [Pivampicillin] |  |  |  |  |  |  | 0 | 0 | 0 | 0 | 0 | 0
9 | CN(C)CCOC(=O)C(c1ccccc1)C1(O)CCCC1 (stereo not drawn) [Cyclopentolate hydrochloride] | 0 | 0 | 0 | 0 | 0 | 0 |  |  |  |  |  | 
10 | CCS(=O)(=O)CCn1c([N+](=O)[O-])cnc1C [Tinidazole] |  |  |  |  |  |  | 0 | 0 | 0 | 0 | 0 | 0
11 | CC1=C2[C@H]3OC(=O)[C@@H](C)[C@@H]3CC[C@@]2(C)C=CC1=O [alpha-Santonin] | 0 | 0 | 0 | 0 | 0 | 0 |  |  |  |  |  | 
12 | COCCc1ccc(OCC(O)CNC(C)C)cc1 (stereo not drawn) [Metoprolol tartrate] | 0 | 0 | 0 | 0 | 0 | 0 |  |  |  |  |  | 
13 | O=C(c1ccccc1)c1ccc2n1CCC2C(=O)O (stereo not drawn) [Ketorolac] |  |  |  |  |  |  | 0 | 0 | 0 | 0 | 0 | 0
14 | CN1C(=O)CCS(=O)(=O)C1c1ccc(Cl)cc1 (stereo not drawn) [Chlormezanone] | 0 | 0 | 0 | 0 | 0 | 0 |  |  |  |  |  | 
15 | O=C(O)CCCCC(=O)O [Hexanedioic acid] | 0 | 0 | 0 | 0 | 0 | 0 |  |  |  |  |  | 
16 | COc1cc(NS(=O)(=O)c2ccc(N)cc2)nc(OC)n1 [Sulfadimethoxine] |  |  |  |  |  |  | 0 | 0 | 0 | 0 | 0 | 0
17 | Brc1c(NC2=NCCN2)ccc2nccnc12 [Brimonidine] |  |  |  |  |  |  | 0 | 0 | 0 | 0 | 0 | 0
18 | Cc1ccc(S(=O)(=O)NC(=O)NN2CC3CCCC3C2)cc1 (stereo not drawn) [Gliclazide] |  |  |  |  |  |  | 0 | 0 | 0 | 0 | 0 | 0
19 | CCCC(=O)Nc1ccc(OCC(O)CNC(C)C)c(C(C)=O)c1 (stereo not drawn) [Acebutolol hydrochloride] |  |  |  |  |  |  | 0 | 0 | 0 | 0 | 0 | 0
20 | C#CCN(C)[C@H](C)Cc1ccccc1 [Selegiline hydrochloride] | 0 | 0 | 0 | 0 | 0 | 0 |  |  |  |  |  | 
21 | Cc1cc2c(cc1S(N)(=O)=O)S(=O)(=O)CCC2 [Meticrane] | 0 | 0 | 0 | 0 | 0 | 0 |  |  |  |  |  | 
22 | CC(=O)Nc1nnc(S(N)(=O)=O)s1 [Acetazolamide] |  |  |  |  |  |  | 0 | 0 | 0 | 0 | 0 | 0
23 | CCC(=O)O[C@]1(C(=O)SCF)[C@H](C)C[C@H]2[C@@H]3C[C@H](F)C4=CC(=O)C=C[C@]4(C)[C@@]3(F)[C@@H](O)C[C@@]21C [Fluticasone propionate] |  |  |  |  |  |  | 0 | 0.67 | 0 | 0 | 0 | 0
24 | CC(O)Cn1cnc2c1c(=O)n(C)c(=O)n2C (stereo not drawn) [Proxyphylline] |  |  |  |  |  |  | 0 | 0 | 0 | 0 | 0 | 0
25 | COP(=S)(OC)Oc1ccc(SC)c(C)c1 [Fenthion] | 0 | 0 | 0 | 0 | 0 | 0 |  |  |  |  |  | 
26 | CC(C)(C)NCC(O)COc1cccc2c1CCC(=O)N2 (stereo not drawn) [Carteolol hydrochloride] |  |  |  |  |  |  | 0 | 0 | 0 | 0 | 0 | 0
27 | CC[C@]12CCCN3CCc4c(n(c5ccccc45)[C@@](O)(C(=O)OC)C1)[C@@H]32 [Vincamine] | 0 | 0 | 0 | 0 | 0 | 0 |  |  |  |  |  | 
28 | CC1(C)Oc2ccc(C#N)cc2[C@@H](N2CCCC2=O)[C@@H]1O [Levcromakalim] |  |  |  |  |  |  | 0 | 0 | 0 | 0 | 0 | 0
